In patent US7468384B2, “Microbicidal composition” (Rohm and Haas Company, priority 2004, dated 2008):

Experiments:
Type in all cases: cell-based
[1] = test system: Pseudomonas aeruginosa (P. aeruginosa—ATCC #15442); assay: Synergy test, microtiter plate high resolution MIC assay, bacterium; set-up: key to SI (calculated synergy index) / SI (synergy index): SI = Qa/QA + Qb/QB (mixture vs. alone end-point concentrations); details: for Qb (second component at end point, MIC): alone where Qa = 0
Description: (§1) One measure of synergism is the industrially accepted method described by Kull, F. C.; Eisman, P. C.; Sylwestrowicz, H. D. and Mayer, R. L., in Applied Microbiology 9:538-541 (1961), using the ratio determined by the formula: Qa/QA+Qb/QB=Synergy Index (“SI”) wherein: • QA=concentration of compound A (first component) in ppm, acting alone, which produced an end point (MIC of Compound A). • Qa=concentration of compound A in ppm, in the mixture, which produced an end point. • QB=concentration of compound B (second component) in ppm, acting alone, which produced an end point (MIC of Compound B). • Qb=concentration of compound B in ppm, in the mixture, which produced an end point.
(§2) When the sum of Qa/QA and Qb/QB is greater than one, antagonism is indicated. […] The lower the SI, the greater the synergy shown by that particular mixture. The minimum inhibitory concentration (MIC) of a microbicide is the lowest concentration tested under a specific set of conditions that prevents the growth of added microorganisms.
(§3) Synergy tests were conducted using standard microtiter plate assays with media designed for optimal growth of the test microorganism. Soybean Casein Digest Broth (Tryptic Soy Broth, TSB medium) or minimal salt medium supplemented with 0.2% glucose and 0.1% yeast extract (M9GY medium) was used for testing bacteria; Potato Dextrose Broth (PDB medium) was used for testing yeast and mold. In this method, a wide range of combinations of microbicides was tested by conducting high resolution MIC assays in the presence of various concentrations of MI. High resolution MICs were determined by adding varying amounts of microbicide to one column of a microtitre plate and doing subsequent ten-fold dilutions using an automated liquid handling system to obtain a series of endpoints ranging from 2 ppm to 10,000 ppm active ingredient.
(§4) For MI combinations, the synergy of the combinations of the present invention was determined against two bacteria, Escherichia coli (E. coli—ATCC #8739) or Pseudomonas aeruginosa (P. aeruginosa—ATCC #15442), a yeast, Candida albicans (C. albicans—ATCC 10231), and a mold, Aspergillus niger (A. niger—ATCC 16404). The bacteria were used at a concentration of about 5×10^6 bacteria per mL and the yeast and mold at 5×10^5 fungi per mL. These microorganisms are representative of natural contaminants in many consumer and industrial applications. […] (bacteria).
(§5) For BIT combinations, the synergy of the combinations of the present invention was determined against a bacterium, Pseudomonas aeruginosa (P. aeruginosa—ATCC #15442), a yeast, Candida albicans (C. albicans—ATCC 10231), and a mold, Aspergillus niger (A. niger—ATCC 16404). The bacteria were used at a concentration of about 5×10^6 bacteria per mL and the yeast and mold at 5×10^5 fungi per mL. These microorganisms are representative of natural contaminants in many consumer and industrial applications. […] (yeast and mold) or 30° C. (bacteria).

[2] = test system: Candida albicans (C. albicans—ATCC 10231); assay: Synergy test, microtiter plate high resolution MIC assay, yeast; details: C. albicans 10231, PDB, 24 hours
Description: as §1, §2, §3, §4, §5

[3] = test system: S. aureus 6538; assay: Synergy test, microtiter plate high resolution MIC assay, bacterium; details: S. aureus 6538, TSB
Description: as §1, §2, §3

[4] = test system: Aspergillus niger (A. niger—ATCC 16404); assay: Synergy test, microtiter plate high resolution MIC assay, mold; set-up: key to SI (calculated synergy index) / SI (synergy index): SI = Qa/QA + Qb/QB (mixture vs. alone end-point concentrations); details: A. niger 16404, PDB; for Qb (second component at end point, MIC): alone where Qa = 0
Description: as §1, §2, §3, §4, §5

[5] = test system: Escherichia coli (E. coli—ATCC #8739); assay: Synergy test, microtiter plate high resolution MIC assay, bacterium; details: E. coli 8739, M9GY, 24 hours
Description: as §1, §2
as §3, with “In this method, a wide range of combinations of microbicides was tested by conducting high resolution MIC assays in the presence of various concentrations of MI.” left out
as §4

OCC(O)COc1ccc(Cl)cc1 (centres unmarked) [Chlorphenesin]
MIC of component acting alone (QA / QB) ([1]; P. aeruginosa 15442, M9GY, 48 hours): 4000 ppm
MIC of component acting alone (QA / QB) ([1]; P. aeruginosa 15442, TSB, 48 hours): 8000 ppm
Qb ([1]; chlorphenesin concentration giving end point (MIC), alone or mixed with BIT, P. aeruginosa 15442, M9GY, 72 hours): 8000 ppm
SI ([1]; synergy index BIT + chlorphenesin, P. aeruginosa 15442, M9GY, 72 hours): 1.00
MIC of component acting alone (QA / QB) [2]: 2000 ppm
MIC of component acting alone (QA / QB) ([3]; 48 hours): 5000 ppm
MIC of component acting alone (QA / QB) ([4]; 4 days): 2000 ppm
Qb ([4]; chlorphenesin concentration giving end point (MIC), alone or mixed with BIT, 1 week): 2000 ppm
SI ([4]; synergy index BIT + chlorphenesin, 1 week): 1.00
MIC of component acting alone (QA / QB) [5]: 2000 ppm

Cocamidopropyl PG-dimonium chloride phosphate
SI (calculated synergy index) ([1]; Table 6, P. aeruginosa 15442, M9GY, 72 hours): 1.00
Qb: end-point activity (MIC) of second component in the mixture (alone, QB, where Qa = 0) ([1]; Table 6, P. aeruginosa 15442, M9GY, 72 hours, B = Cocamidopropyl PG-dimonium chloride phosphate): 30 ppm
SI (calculated synergy index) ([1]; Table 6, P. aeruginosa 15442, TSB, 48 hours): 1.00
Qb: end-point activity (MIC) of second component in the mixture (alone, QB, where Qa = 0) ([1]; Table 6, P. aeruginosa 15442, TSB, 48 hours, B = Cocamidopropyl PG-dimonium chloride phosphate): 1000 ppm
Qb (second component at end point, MIC) ([1]; Table 22, Cocamidopropyl PG-dimonium chloride phosphate with BIT, P. aeruginosa 15442, M9GY, 72 hours): 40 ppm
SI (synergy index) ([1]; Table 22, P. aeruginosa 15442, M9GY, 72 hours): 1.00
SI (calculated synergy index) ([2]; Table 6): 1.00
Qb: end-point activity (MIC) of second component in the mixture (alone, QB, where Qa = 0) ([2]; Table 6, B = Cocamidopropyl PG-dimonium chloride phosphate): 100 ppm
SI (calculated synergy index) ([3]; Table 6, 24 hours): 1.00
Qb: end-point activity (MIC) of second component in the mixture (alone, QB, where Qa = 0) ([3]; Table 6, 24 hours, B = Cocamidopropyl PG-dimonium chloride phosphate): 30 ppm
SI (calculated synergy index) ([4]; Table 6, 4 days): 1.00
Qb: end-point activity (MIC) of second component in the mixture (alone, QB, where Qa = 0) ([4]; Table 6, 4 days, B = Cocamidopropyl PG-dimonium chloride phosphate): 1000 ppm
SI (synergy index) ([4]; Table 22, 1 week): 1.00
Qb (second component at end point, MIC) ([4]; Table 22, Cocamidopropyl PG-dimonium chloride phosphate with BIT, 1 week): 3000 ppm

Linoleamidopropyl PG-dimonium chloride phosphate
SI (calculated synergy index) ([1]; Table 5, P. aeruginosa 15442, M9GY, 48 hours): 1.00
Qb: end-point activity (MIC) of second component in the mixture (alone, QB, where Qa = 0) ([1]; Table 5, P. aeruginosa 15442, M9GY, 48 hours, B = Linoleamidopropyl PG-dimonium chloride phosphate): 10000 ppm
SI (calculated synergy index) ([1]; Table 5, P. aeruginosa 15442, TSB, 48 hours): 1.00
Qb: end-point activity (MIC) of second component in the mixture (alone, QB, where Qa = 0) ([1]; Table 5, P. aeruginosa 15442, TSB, 48 hours, B = Linoleamidopropyl PG-dimonium chloride phosphate): 10000 ppm
Qb (second component at end point, MIC) ([1]; Table 21, Linoleamidopropyl PG-dimonium chloride phosphate with BIT, P. aeruginosa 15442, M9GY, 48 hours): 10000 ppm
SI (synergy index) ([1]; Table 21, P. aeruginosa 15442, M9GY, 48 hours): 1.00
SI (calculated synergy index) ([2]; Table 5): 1.00
Qb: end-point activity (MIC) of second component in the mixture (alone, QB, where Qa = 0) ([2]; Table 5, B = Linoleamidopropyl PG-dimonium chloride phosphate): 8000 ppm
SI (calculated synergy index) ([3]; Table 5, 48 hours): 1.00
Qb: end-point activity (MIC) of second component in the mixture (alone, QB, where Qa = 0) ([3]; Table 5, 48 hours, B = Linoleamidopropyl PG-dimonium chloride phosphate): 40 ppm
SI (calculated synergy index) ([4]; Table 5, 7 days): 1.00
Qb: end-point activity (MIC) of second component in the mixture (alone, QB, where Qa = 0) ([4]; Table 5, 7 days, B = Linoleamidopropyl PG-dimonium chloride phosphate): 6000 ppm
SI (synergy index) ([4]; Table 21, 4 days): 1.00
Qb (second component at end point, MIC) ([4]; Table 21, Linoleamidopropyl PG-dimonium chloride phosphate with BIT, 4 days): 3000 ppm
